{
  "source": "patent US6331555A",
  "about": "“Treatment of platelet derived growth factor related disorders such as cancers” (priority 1999, dated 2001)",
  "key": {"[1]": {"system": "C6 cells", "test": "PDGF-stimulated DNA synthesis, C6 cells (3H-thymidine)", "format": "cell-based, rat", "details": "50 ng/ml PDGF-BB"}, "[2]": {"system": "C6 glioma cells", "test": "C6 glioma SC xenograft in mice", "format": "in vivo", "details": "for inhibition in vivo at 15 mg/kg: Rattus norvegicus, C6 glioma, sc, read-out: C6 in vivo EFFICACY", "procedure,_shortened": "(§1)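 C6 (3×10^6) or SKOV-3 (1×10^7) cells in PBS were implanted into the hind flank of female Balb/c nu/nu mice on Day 0; U87MG and U118MG went into athymic mice. Tumors were caliper-measured over 3–6 weeks, with volume as length×width×height. P values came from Student's t-test.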"}, "[3]": {"system": "A549 lung tumor", "test": "SC xenograft in mice", "format": "in vivo, human", "protocol": "(§2) Cell lines were grown in appropriate medium (see Appendix 1). Cells were harvested at or near confluency with 0.05% Trypsin-EDTA and pelleted at 450×g for 10 min. Pellets were resuspended in sterile PBS or media (without FBS) to a particular concentration and the cells were implanted into the hindflank of mice. Tumor growth was measured over 3 to 6 weeks using venier calipers. Tumor volumes were calculated as a product of length×width×height unless otherwise indicated. P values were calculated using the Students' t-test."}, "[4]": {"system": "Calu-6 lung tumor", "test": "SC xenograft in mice", "format": "in vivo, human", "details": "nu/nu, 20 mg/kg/day, day 28", "protocol": "as §2"}, "[5]": {"system": "MCF7 mammary tumor", "test": "SC xenograft in mice", "format": "in vivo, human", "protocol": "as §2"}, "[6]": {"system": "PA-1 ovarian tumor", "test": "SC xenograft in mice", "format": "in vivo, human", "details": "nu/nu, 20 mg/kg/day, day 36", "protocol": "as §2"}, "[7]": {"system": "SF763T glioma", "test": "SC xenograft in mice", "format": "in vivo, human", "protocol": "as §2"}, "[8]": {"system": "U118T glioma", "test": "SC xenograft in mice", "format": "in vivo, human", "details": "nu/nu, 15 mg/kg/day, day 47", "protocol": "as §2"}, "[9]": {"system": "SF763", "test": "Xenograft in athymic mice", "format": "in vivo", "details": "xenografted athymic mice", "protocol": "as §2\n(§3) PDGF-R expression was measured qualitatively using a western blot."}, "[10]": {"system": "SF767", "test": "Xenograft in athymic mice", "format": "in vivo", "details": "xenografted athymic mice", "protocol": "as §2, §3"}, "[11]": {"system": "SKOV3T cells", "test": "Survival, IP SKOV3T xenograft in BALB/c nu/nu mice", "format": "in vivo, human", "details": "15 mg/kg/day IP in DMSO", "protocol": "Cell lines were grown in the appropriate media as described in Appendix 1. Cells were harvested and washed in sterile PBS or medium without FBS, resuspended to a suitable concentration, and injected into the IP cavity of […] of the appropriate strain. Prior to implantation of 7TD1 cells, C57BL/6 mice were primed by IP injection of 0.5 mL Pristane. SKOV3T cells were implanted into athymic mice without Pristane priming. Mice were observed daily for the occurrence of ascites formation. Individual animals were sacrificed when they presented with a weight gain of 40%, or when the IP tumor burden began to cause undue stress and pain to the animal.\nIn one experiment, SKOV3T cells (2×10^6 cells) were implanted into the IP cavity of BALB/c, nu/nu mice."}, "[12]": {"test": "physchem", "source_text": "PBTE consists of a solution of 3% w/v benzyl alcohol, 8% w/v polysorbate 80, and 65% w/v polyethylene glycol (MW=300 daltons) in absolute ethanol. PBTE:D5W consists of PBTE diluted 1:1 in a solution of 5% dextrose in water. […] The solubility of the other compounds described herein can be obtained using standard techniques."}, "[13]": {"target": "PDGFR (Homo sapiens, UniProt P09619)", "sequence (P09619 33-1106)": "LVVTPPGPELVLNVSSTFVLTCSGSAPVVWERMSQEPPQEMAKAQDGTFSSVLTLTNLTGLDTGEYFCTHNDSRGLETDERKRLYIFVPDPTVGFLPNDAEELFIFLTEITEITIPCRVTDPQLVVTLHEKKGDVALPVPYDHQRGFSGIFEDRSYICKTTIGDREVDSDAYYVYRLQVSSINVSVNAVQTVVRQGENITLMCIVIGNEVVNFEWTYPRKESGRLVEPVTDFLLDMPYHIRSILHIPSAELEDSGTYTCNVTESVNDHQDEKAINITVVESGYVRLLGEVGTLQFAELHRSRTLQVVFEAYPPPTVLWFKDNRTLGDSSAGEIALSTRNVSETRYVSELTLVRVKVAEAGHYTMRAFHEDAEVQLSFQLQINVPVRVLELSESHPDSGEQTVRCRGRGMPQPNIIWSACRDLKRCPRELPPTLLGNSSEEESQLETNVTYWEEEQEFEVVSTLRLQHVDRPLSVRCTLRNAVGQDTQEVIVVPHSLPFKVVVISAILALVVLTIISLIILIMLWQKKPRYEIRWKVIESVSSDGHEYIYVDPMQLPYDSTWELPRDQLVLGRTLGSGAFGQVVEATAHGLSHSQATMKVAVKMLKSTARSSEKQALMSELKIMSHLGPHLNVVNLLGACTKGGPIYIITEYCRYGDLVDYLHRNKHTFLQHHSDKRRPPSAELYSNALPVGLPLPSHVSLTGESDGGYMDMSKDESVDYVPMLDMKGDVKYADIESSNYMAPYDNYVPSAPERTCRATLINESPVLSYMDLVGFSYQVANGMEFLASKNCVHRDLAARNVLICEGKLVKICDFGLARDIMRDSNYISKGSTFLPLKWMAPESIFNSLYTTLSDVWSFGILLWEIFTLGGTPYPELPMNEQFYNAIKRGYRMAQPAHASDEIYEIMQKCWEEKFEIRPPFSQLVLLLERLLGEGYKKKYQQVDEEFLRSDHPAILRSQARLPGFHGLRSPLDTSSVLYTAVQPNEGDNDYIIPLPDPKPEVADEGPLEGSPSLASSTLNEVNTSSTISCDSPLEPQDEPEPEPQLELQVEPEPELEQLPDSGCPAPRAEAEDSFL", "test": "Receptor tyrosine kinase inhibition, PDGFR", "format": "cell-based", "parameters": "U1242 (PDGF-β receptor); host or cells: U1242 glioma cells (ELISA)", "details": "read-out: PDGFR IC50", "protocol": "For western blotting, cells were plated in 2 mL growth medium into 6-well dishes (500,000 cells per well) and allowed to attach overnight. […] The plates were then incubated overnight at 37° C., ambient CO2. […] After a 7 min incubation at room temperature with ligand, the plates were put on ice and washed three times with 1 mL ice-cold PBS plus 1 mM orthovanadate. Lysis was achieved by pipetting cells in 0.5 mL of buffer containing 50 mM Tris, pH 7.4, 10% glycerol, 1% NP-40, 2 mM EDTA, 1 mM sodium vanadate (Na3 VO4), 10 mM pyrophosphate, 1 mM PMSF, […]. A 300 μL aliquot of each lysate was immediately added to 100 μL 4×Laemmli sample buffer ([…] Tris pH 6.9, 20% glycerol, 7% SDS, 5 mM EDTA, 5% β-mercaptoethanol) containing phosphatase inhibitors, 2 mM Na3 VO4 and 10 mM pyrophosphate. Samples were boiled for 5 min, frozen in dry ice-ethanol, and stored at -80° C. […] The integrity of the protein-to-membrane transfer was determined by staining with 1% Ponceau S in 5% acetic acid for 5 min. After destaining in several distilled water rinses, the membrane was soaked overnight in blocking buffer containing 5% milk in Tris-buffered saline, 0.05% Tween 20. Phosphotyresine was detected by incubating the membrane (1 hr at room temperature) with an anti-phosphotyosine antiserum diluted in blocking buffer at 1:3000. […] The antibodies were visualized using ECL reagent from Amersham and by exposure to Fuji RX film.\nFor ELISA assays, cells were grown to 80-90% confluency in growth medium and seeded in 96-well tissue culture plates in 0.5% serum at 25,000 to 30,000 cells per well. After overnight incubation in 0.5% serum-containingmedium, cells were changed to serum-free medium and treated with test compound for 2 hr in a 5% CO2, 37° C. incubator. […] Lysates were incubated with shaking for 1 hr at room temperature. The plates were washed with TBST four times and then incubated with polyclonol anti-phosphotyrosine antibody at room temperature for 30 min. Excess anti-phosphotyrosine antibody was removed by rinsing the plate with TBST four times. Goat anti-rabbit IgG antibody was added to the ELISA plate for 30 min at room temperature followed by rinsing with TBST four more times.\nThe ability of different compound to inhibit different receptor tyrosine kinases was tested."}, "[14]": {"test": "C6 glioma SC xenograft in mice", "format": "in vivo", "details": "rat, in vivo, ip; for mortality at 336 h: 15 mg/kg", "procedure,_shortened": "as §1"}},
  "note": "Where two headings read alike, the source gives them in different places.",
  "data": [
    {"smiles": "Cc1oncc1C(=O)Nc1ccc(C(F)(F)F)cc1", "note": "[Compound A10, 5-methylisoxazole-4 carboxylic acid-(4-trifluromethyl)-anilide]", "values": [
      {"measurement": "PDGF-stimulated DNA synthesis", "setting": "[1]", "value": "decreased PDGF-stimulated DNA synthesis in both types of cells"},
      {"measurement": "inhibition in tumor growth", "setting": "[2]; 15 mg/kg/day (DMSO), after 20 days", "value": "greater than 90%"},
      {"measurement": "% Inhibition", "setting": "[2]; 15 mg/kg/day, DMSO", "value": 90, "unit": "%"},
      {"measurement": "% Inhibition", "setting": "[2]; 15 mg/kg/day, PBTE", "value": 92, "unit": "%"},
      {"measurement": "% Inhibition", "setting": "[2]; 20 mg/kg (DMSO), 2 days", "value": 77, "unit": "%"},
      {"measurement": "% Inhibition", "setting": "[2]; 20 mg/kg (DMSO), 4 days", "value": 60, "unit": "%"},
      {"measurement": "% Inhibition", "setting": "[2]; 20 mg/kg (PBTE:D5W), daily", "value": "> 95", "unit": "%"},
      {"measurement": "% Inhibition", "setting": "[2]; 20 mg/kg, PBTE:D5W", "value": "> 95", "unit": "%"},
      {"measurement": "% Inhibition", "setting": "[2]; 20 mg/kg/day, DMSO", "value": 95, "unit": "%"},
      {"measurement": "% Inhibition", "setting": "[2]; 20 mg/kg/day, PBTE", "value": "> 95", "unit": "%"},
      {"measurement": "% Inhibition", "setting": "[2]; 30 mg/kg (DMSO), 2 days", "value": 91, "unit": "%"},
      {"measurement": "% Inhibition", "setting": "[2]; 30 mg/kg (DMSO), 3 days", "value": 87, "unit": "%"},
      {"measurement": "% Inhibition", "setting": "[2]; 40 mg/kg (PBTE), 2 days", "value": "> 95", "unit": "%"},
      {"measurement": "% Inhibition", "setting": "[2]; 40 mg/kg/2 days, PBTE", "value": "> 95", "unit": "%"},
      {"measurement": "% Inhibition", "setting": "[2]; 60 mg/kg (PBTE), weekly", "value": 51, "unit": "%"},
      {"measurement": "% Inhibition", "setting": "[2]; 100 mg/kg (PBTE), weekly", "value": 63, "unit": "%"},
      {"measurement": "efficacy of formulations", "setting": "[2]; PBTE, PBTE:D5W and DMSO", "value": "equivalent in vivo inhibition of tumor growth"},
      {"measurement": "% Inhibition", "setting": "[2]; nu/nu, 20 mg/kg/day, day 21", "value": "> 95", "unit": "%"},
      {"measurement": "% Inhibition", "setting": "[2]; nu/nu†, 20 mg/kg/day, day 18, delayed start", "value": 84, "unit": "%"},
      {"measurement": "In Vivo inhibition", "setting": "[2]; xenografted athymic mice", "value": 95, "unit": "%"},
      {"measurement": "growth of xenograft", "setting": "[3]; 12 to 20 mg/kg/day", "value": "failed to significantly inhibit the growth"},
      {"measurement": "% Inhibition", "setting": "[3]; SCID, 15 mg/kg/day, day 48, treatment from day 29", "value": 19, "unit": "%"},
      {"measurement": "% Inhibition", "setting": "[4]", "value": 64, "unit": "%"},
      {"measurement": "growth of xenograft", "setting": "[5]; 12 to 20 mg/kg/day", "value": "failed to significantly inhibit the growth"},
      {"measurement": "% Inhibition", "setting": "[5]; SCID, 15 mg/kg/day, day 27, treatment from day 8", "value": 8, "unit": "%"},
      {"measurement": "% Inhibition", "setting": "[6]", "value": 53, "unit": "%"},
      {"measurement": "% Inhibition", "setting": "[7]; 20 mg/kg", "value": 89, "unit": "%"},
      {"measurement": "% Inhibition", "setting": "[7]; nu/nu, 20 mg/kg/day, day 22", "value": 85, "unit": "%"},
      {"measurement": "In Vivo inhibition", "setting": "[7]; xenografted athymic mice", "value": 89, "unit": "%"},
      {"measurement": "% Inhibition", "setting": "[8]", "value": 57, "unit": "%"},
      {"measurement": "In Vivo inhibition", "setting": "[9]", "value": 35, "unit": "%"},
      {"measurement": "In Vivo inhibition", "setting": "[10]", "value": 18, "unit": "%"},
      {"measurement": "survival", "setting": "[11]", "value": "significantly increase the survival"},
      {"measurement": "animals alive", "setting": "[11]; after 32 days", "value": 40, "unit": "%"},
      {"measurement": "animals died", "setting": "[11]; by 28 days", "value": "one of A10 treated animals died by 28 days"},
      {"measurement": "solubility", "setting": "[12]; pbte, organic solvent or mixture", "value": "~60", "unit": "mg/mL"},
      {"measurement": "solubility", "setting": "[12]; pbte:d5w", "value": "~5", "unit": "mg/mL"},
      {"measurement": "solubility in water", "setting": "[12]; water", "value": "not very soluble in water"}
    ]},
    {"smiles": "N#CC(=Cc1c[nH]c2ccccc12)c1[nH]nc(N)c1C#N", "note": "[Compound D14]", "values": [
      {"measurement": "IC50", "setting": "[13]", "value": 47, "unit": "µM"}
    ]},
    {"smiles": "Cc1cc2ncc(-c3ccccc3)nc2cc1C", "note": "[Compound G13]", "values": [
      {"measurement": "mortality at 336 h", "setting": "[14]", "value": 0, "unit": "%"},
      {"measurement": "inhibition in vivo at 15 mg/kg", "setting": "[2]", "value": 12, "unit": "%"}
    ]},
    {"smiles": "COc1cc2ncc(-c3ccccc3)nc2cc1OC", "note": "[Compound G14]", "values": [
      {"measurement": "mortality at 336 h", "setting": "[14]", "value": 0, "unit": "%"},
      {"measurement": "inhibition in vivo at 15 mg/kg", "setting": "[2]; at 15 mg/kg", "value": 36, "unit": "%"}
    ]},
    {"smiles": "c1ccc(-c2cnc3cc4ccccc4cc3n2)cc1", "note": "[Compound G22]", "values": [
      {"measurement": "mortality", "setting": "[14]; 20 mg/kg", "value": 0, "unit": "%"},
      {"measurement": "C6 in vivo EFFICACY", "setting": "[2]; at 20 mg/kg", "value": "no effect"},
      {"measurement": "IC50", "setting": "[13]", "value": 14, "unit": "µM"}
    ]}
  ]
}
